# Patent US8309546B2, “Morpholinopurine derivatives” (Daiichi Sankyo Company, Limited, priority 2008, dated 2012)
# Test system: human endometrial cancer cell strain AN3CA tumor
# Assay: Anti-tumor effect assay using mouse subcutaneous transplantation model
# Format: in vivo, female nude mouse
# Conditions: AN3-CA, oral, tumor weight vs negative control, read-out: Anti-tumor effect (tumor growth inhibition rate); for inhibition in vivo at 5 mg/kg/day / inhibition in vivo at 10 mg/kg/day / inhibition in vivo at 2.5 mg/kg/day: 8 or 5 consecutive days depending on compound; for inhibition in vivo at 20 mg/kg/day: consecutive days
# Protocol: A tumor section was prepared from a human endometrial cancer cell strain AN3CA tumor mass formed in a female nude mouse as a subcutaneously transplanted tumor and then a xenograft model was prepared by transplanting the tumor section into female nude mouse. Tumor-bearing mice having an estimated tumor volume (long diameter×short diameter×short diameter/2) of 80 to 200 mm^3 were divided, so that there should be no significant difference in the mean estimated tumor volume and body weight as compared with the negative control group to perform a test. The test compound was orally administered at a predetermined dose for 8 consecutive days. On the following day of the final administration day, tumor-bearing mice were anesthetized and exsanguinated to death and a tumor mass was isolated to measure tumor weight (the compounds of Examples 1, 3, 6, 8, 11, 12, and 14). Furthermore, as a similar test, the test compound was orally administered for 5 consecutive days, animals were sacrificed on the final administration day, and tumor weight was measured (the compounds of Examples 60, 63, 75, 77, 79, 89, 92, 107, 108, 109, 110, and 127).
# In all the tests, anti-tumor effect was calculated by the following formula. {1−(tumor weight in compound treatment group/tumor weight in negative control group)}×100
Structure (SMILES),inhibition in vivo at 5 mg/kg/day,inhibition in vivo at 10 mg/kg/day,other results
"CC(C)Cn1c(N2CCN(S(C)(=O)=O)CC2)nc2c(N3CCOCC3)nc(-c3cnc(N)nc3)nc21 [Example 1, 5-{9-Isobutyl-8-[4-(methylsulfonyl)piperazin-1-yl]-6-morpholin-4-yl-9H-purin-2-yl}pyrimidin-2-amine]",79%,92%,–
"CC(=O)N1CCN(c2nc3c(N4CCOCC4)nc(-c4cnc(N)nc4)nc3n2CC(C)C)CC1 [Example 2, 5-[8-(4-Acetylpiperazin-1-yl)-9-isobutyl-6-morpholin-4-yl-9H-purin-2-yl]pyrimidin-2-amine]",44%,70%,–
"CS(=O)(=O)N1CCN(c2nc3c(N4CCOCC4)nc(-c4cnc(N)nc4)nc3n2CC2CC2)CC1 [Example 3, 5-{9-(Cyclopropylmethyl)-8-[4-(methylsulfonyl)piperazin-1-yl]-6-morpholin-4-yl-9H-purin-2-yl}pyrimidin-2-amine]",75%,86%,–
"Cc1nc(N)ncc1-c1nc(N2CCOCC2)c2nc(N3CCN(S(C)(=O)=O)CC3)n(CC3CC3)c2n1 [Example 6, 5-{9-(Cyclopropylmethyl)-8-[4-(methylsulfonyl)piperazin-1-yl]-6-morpholin-4-yl-9H-purin-2-yl}-4-methylpyrimidin-2-amine]",66%,69%,–
"CS(=O)(=O)N1CCN(c2nc3c(N4CCOCC4)nc(-c4cnc(N)nc4)nc3n2CC(F)(F)F)CC1 [Example 8, 5-{8-[4-(Methylsulfonyl)piperazin-1-yl]-6-morpholin-4-yl-9-(2,2,2-trifluoroethyl)-9H-purin-2-yl}pyrimidin-2-amine]",93%,–,inhibition in vivo at 2.5 mg/kg/day: 72%
"CC(=O)N1CCN(c2nc3c(N4CCOCC4)nc(-c4cnc(N)nc4)nc3n2CC2CC2)CC1 [Example 10, 5-[8-(4-Acetylpiperazin-1-yl)-9-(cyclopropylmethyl)-6-morpholin-4-yl-9H-purin-2-yl]pyrimidin-2-amine]",–,39%,inhibition in vivo at 20 mg/kg/day: 73%
"CNc1ncc(-c2nc(N3CCOCC3)c3nc(N4CCN(S(C)(=O)=O)CC4)n(CC(F)(F)F)c3n2)cn1 [Example 11, N-Methyl-5-{8-[4-(methylsulfonyl)piperazin-1-yl]-6-morpholin-4-yl-9-(2,2,2-trifluoroethyl)-9H-purin-2-yl}pyrimidin-2-amine]",85%,–,inhibition in vivo at 2.5 mg/kg/day: 68%
"C[C@@H]1CN(c2nc3c(N4CCOCC4)nc(-c4cnc(N)nc4)nc3n2CC(F)(F)F)C[C@H](C)N1 [Example 14, 5-[8-(cis-3,5-Dimethylpiperazin-1-yl)-6-morpholin-4-yl-9-(2,2,2-trifluoroethyl)-9H-purin-2-yl]pyrimidin-2-amine]",64%,82%,–
"CC(C)Cn1c(N2CCN(S(C)(=O)=O)[C@@H](C)C2)nc2c(N3CCOCC3)nc(-c3cnc(N)nc3)nc21 [Example 53, 5-{9-Isobutyl-8-[(3S)-3-methyl-4-(methylsulfonyl)piperazin-1-yl]-6-morpholin-4-yl-9H-purin-2-yl}pyrimidin-2-amine]",45%,68%,–
"CC(C)Cn1c(N2CCN(S(C)(=O)=O)[C@H](C)C2)nc2c(N3CCOCC3)nc(-c3cnc(N)nc3)nc21 [Example 54, 5-{9-Isobutyl-8-[(3R)-3-methyl-4-(methylsulfonyl)piperazin-1-yl]-6-morpholin-4-yl-9H-purin-2-yl}pyrimidin-2-amine]",–,74%,inhibition in vivo at 20 mg/kg/day: 82%
"CC(C)Cn1c(N2CCN(C(=O)CN(C)C)CC2)nc2c(N3CCOCC3)nc(-c3cnc(N)nc3)nc21 [Example 55, 5-(8-{4-[(Dimethylamino)acetyl]piperazin-1-yl}-9-isobutyl-6-morpholin-4-yl-9H-purin-2-yl)pyrimidin-2-amine]",–,32%,inhibition in vivo at 20 mg/kg/day: 59%
"CC(=O)N1CCN(c2nc3c(N4CCOCC4)nc(-c4cnc(N)nc4)nc3n2CC(F)(F)F)C[C@H]1C [Example 60, 5-{8-[(3R)-4-Acetyl-3-methylpiperazin-1-yl]-6-morpholin-4-yl-9-(2,2,2-trifluoroethyl)-9H-purin-2-yl}pyrimidin-2-amine]",–,–,"inhibition in vivo at 1.5 mg/kg/day (120 h, 1.5 mg/kg/day, 5 consecutive days): 64%; inhibition in vivo at 6 mg/kg/day (120 h, 6 mg/kg/day, 5 consecutive days): 89%"
"CC(=O)N1CCN(c2nc3c(N4CCOCC4)nc(-c4cnc(N)nc4)nc3n2CC(F)(F)F)C[C@@H]1C [Example 63, 5-{8-[(3S)-4-Acetyl-3-methylpiperazin-1-yl]-6-morpholin-4-yl-9-(2,2,2-trifluoroethyl)-9H-purin-2-yl}pyrimidin-2-amine]",–,–,"inhibition in vivo at 0.875 mg/kg/day (120 h, 0.875 mg/kg/day, 5 consecutive days): 52%; inhibition in vivo at 3.5 mg/kg/day (120 h, 3.5 mg/kg/day, 5 consecutive days): 88%"
"CC[C@H]1CN(c2nc3c(N4CCOCC4)nc(-c4cnc(N)nc4)nc3n2CC(F)(F)F)CCN1C(C)=O [Example 75, 5-{8-[(3S)-4-Acetyl-3-ethylpiperazin-1-yl]-6-morpholin-4-yl-9-(2,2,2-trifluoroethyl)-9H-purin-2-yl}pyrimidin-2-amine]",–,–,"inhibition in vivo at 1.875 mg/kg/day (120 h, 1.875 mg/kg/day, 5 consecutive days): 44%; inhibition in vivo at 7.5 mg/kg/day (120 h, 7.5 mg/kg/day, 5 consecutive days): 77%"
"CC[C@H]1CN(c2nc3c(N4CCOCC4)nc(-c4cnc(N)nc4)nc3n2CC(F)(F)F)CCN1C(=O)[C@H](C)O [Example 77, (2S)-1-{(2S)-4-[2-(2-Aminopyrimidin-5-yl)-6-morpholin-4-yl-9-(2,2,2-trifluoroethyl)-9H-purin-8-yl]-2-ethylpiperazin-1-yl}-1-oxopropan-2-ol]",–,–,"inhibition in vivo at 3.75 mg/kg/day (120 h, 3.75 mg/kg/day, 5 consecutive days): 47%; inhibition in vivo at 15 mg/kg/day (120 h, 15 mg/kg/day, 5 consecutive days): 84%"
CC[C@@H]1CN(c2nc3c(N4CCOCC4)nc(-c4cnc(N)nc4)nc3n2CC(F)(F)F)CCN1C(=O)[C@H](C)O [Example 79],–,59%,inhibition in vivo at 2.5 mg/kg/day: 27%
"CC(C)Cn1c(N2CCN(C(=O)C[C@@H](C)O)CC2)nc2c(N3CCOCC3)nc(-c3cnc(N)nc3)nc21 [Example 81, (2R)-4-{4-[2-(2-Aminopyrimidin-5-yl)-9-isobutyl-6-morpholin-4-yl-9H-purin-8-yl]piperazin-1-yl}-4-oxobutan-2-ol]",37%,74%,–
"C[C@H](O)C(=O)N1CCN(c2nc3c(N4CCOCC4)nc(-c4cnc(N)nc4)nc3n2CC2CC2)CC1 [Example 88, (2S)-1-{4-[2-(2-Aminopyrimidin-5-yl)-9-(cyclopropylmethyl)-6-morpholin-4-yl-9H-purin-8-yl]piperazin-1-yl}-1-oxopropan-2-ol]",30%,54%,–
"CC(C)Cn1c(N2CCN(C(=O)CO)CC2)nc2c(N3CCOCC3)nc(-c3cnc(N)nc3)nc21 [Example 89, 2-{4-[2-(2-Aminopyrimidin-5-yl)-9-isobutyl-6-morpholin-4-yl-9H-purin-8-yl]piperazin-1-yl}-2-oxoethanol]",56%,69%,–
"CC(C)Cn1c(N2CCN(C=O)CC2)nc2c(N3CCOCC3)nc(-c3cnc(N)nc3)nc21 [Example 90, 4-[2-(2-Aminopyrimidin-5-yl)-9-isobutyl-6-morpholin-4-yl-9H-purin-8-yl]piperazine-1-carboaldehyde]",40%,80%,–
"C[C@H](O)C(=O)N1CCN(c2nc3c(N4CCOCC4)nc(-c4cnc(N)nc4)nc3n2CC2CC2)C[C@@H]1C [Example 92, (2S)-1-{(2S)-4-[2-(2-Aminopyrimidin-5-yl)-9-(cyclopropylmethyl)-6-morpholin-4-yl-9H-purin-8-yl]-2-methylpiperazin-1-yl}-1-oxopropan-2-ol]",52%,61%,–
CC(C)Cn1c(N2CCN(C(=O)[C@@H](C)O)CC2)nc2c(N3CCOCC3)nc(-c3cnc(N)nc3)nc21 [Example 93],54%,–,inhibition in vivo at 2.5 mg/kg/day: 42%
"C[C@H](O)C(=O)N1CCN(c2nc3c(N4CCOCC4)nc(-c4cnc(N)nc4)nc3n2CC2CC2)C[C@H]1C [Example 95, (2S)-1-{(2R)-4-[2-(2-Aminopyrimidin-5-yl)-9-(cyclopropylmethyl)-6-morpholin-4-yl-9H-purin-8-yl]-2-methylpiperazin-1-yl}-1-oxopropan-2-ol]",44%,62%,–
